# Measured values reported in US6855727B2, “Muscular fatigue-controlling composition and method for providing muscular fatigue-controlling effect” (Yaizu Suisankagaku Industry Co., Ltd., priority 2000, dated 2005).
# Assay: lactic acid amount in plasma after loading of exercise
# Assay type: in vivo
# Settings: Test Example 2; mice, 200 mg/kg oral (total amount); 1 hour after loading of exercise (FIG. 6)
# Protocol: Further, when 1 hour passed after the loading of exercise, the blood was collected and the plasma was separated, and the lactic acid amount in the plasma was measured. The measurement of lactic acid amount was carried out with a commercially available kit (trade name: “F-kit L-lactic acid”; manufactured by Beringer Mannheim Co.). […] Further, when 1 hour passed after the loading of exercise, the blood was collected and the plasma was separated, and the lactic acid amount in the plasma was measured in the same manner as in TEST EXAMPLE 1.
compound,measurement,value
"O=C[C@H](O)[C@H](O)[C@H](O)CO [ribose, D-ribose]","lactic acid amount in the plasma, decrease as compared with the control group",29.4%
